Test results from patent US8785631B2, “Oxazolone derivative compounds having a 3-oxa-1-azaspiro[4.5] core” (Seikagaku Corporation, priority 2006, dated 2014).
*1 amine or outer side, *2 acyl side, *3 side chain or, on linkers, in order; H or OH if unused. Where a SMILES comes first, the peptide text is derived from it. [ ]: non-standard residue; d: D form. The star is where a group is joined. Ac6c = NC1(C(=O)O)CCCCC1; Morpholide = C1CN(*)CCO1; Nle = CCCC[C@H](N)C(=O)O; Cbz = O=C(OCc1ccccc1)*; CO = O=C([*:1])[*:2]

How the values were obtained:
[1] = target: T1, Human cathepsin B (Homo sapiens, UniProt P07858); test: Measurement of cathepsin B inhibitory activity; assay type: biochemical; conditions: selectivity ratio B/K
T1 construct: purchased Calbiochem Corp
Procedure: (§1) Human cathepsin B (Calbiochem Corp.) was used for measurement. Activity was measured based on decomposition of the fluorescent substrate Z-Arg-Arg-MCA (Peptide Institute, Inc.) in compliance with the method of Barrett, et al.^3). Namely, the decomposition of 20 mM Z-Arg-Arg-MCA by cathepsin B was measured in 100 mM sodium potassium phosphate, 1 mM EDTA, 8 mM cysteine and 0.005% Brij35 at pH 6.0. The reaction was carried out for 30 minutes at 30° C., and stopped by the addition of 2×10^−5 M Calpeptin. After stopping the reaction, fluorescent intensity was measured at an excitation wavelength of 355 nm and measurement wavelength of 460 nm. Inhibition of cathepsin B by the compounds was examined using the reaction system described above.

[2] = target: T2, Human cathepsin L (Homo sapiens, UniProt P07711); test: Measurement of cathepsin L inhibitory activity; assay type: biochemical; conditions: selectivity ratio L/K
T2 construct: purchased Calbiochem Corp
Procedure: as §1, with “cathepsin L” for “cathepsin B”, “substrate Z-Phe-Arg-MCA” for “substrate Z-Arg-Arg-MCA”, “[…] Z-Phe-Arg-MCA” for “mM Z-Arg-Arg-MCA”, “sodium acetate, 5” for “sodium potassium phosphate, 1”, “EDTA, 4 mM urea,” for “EDTA,”, “pH 5.5.” for “pH 6.0.”

T2 sequence (P07711 114-333): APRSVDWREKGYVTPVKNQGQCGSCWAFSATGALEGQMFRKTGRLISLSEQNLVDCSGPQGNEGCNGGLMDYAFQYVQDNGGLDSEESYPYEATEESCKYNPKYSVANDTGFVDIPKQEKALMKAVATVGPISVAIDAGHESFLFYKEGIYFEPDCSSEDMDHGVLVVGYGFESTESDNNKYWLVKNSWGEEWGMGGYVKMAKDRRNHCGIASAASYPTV

CC(C)[C@@H](C=O)NC(=O)C1(NC(=O)c2ccco2)CCCCC1 [Reference Example 146, N-[[1-[(2-Furanylcarbonyl)amino]cyclohexyl]carbonyl]-L-valinal]
B/K (ratio of IC50 cathepsin B to cathepsin K) [1]: 87
L/K (ratio of IC50 cathepsin L to cathepsin K) [2]: 370

CCCC[C@@H](C=O)NC(=O)[C@H](CC(C)C)NC(=O)N1CCOCC1 [Reference Example 150, N—[N-(4-Morpholinylcarbonyl)-L-leucyl]-L-norleucinal]
B/K (ratio of IC50 cathepsin B to cathepsin K) [1]: 4.3
L/K (ratio of IC50 cathepsin L to cathepsin K) [2]: 7.3

CCCC[C@@H](C=O)NC(=O)C1(NC(=O)N2CCOCC2)CCCCC1 [Reference Example 147, N-[[1-[(4-Morpholinylcarbonyl)amino]cyclohexyl]carbonyl]-L-norleucinal] ({Morpholide-CO}-[Ac6c]-[Nle]-aldehyde)
B/K (ratio of IC50 cathepsin B to cathepsin K) [1]: 12
L/K (ratio of IC50 cathepsin L to cathepsin K) [2]: 21

CCCC[C@@H](C=O)NC(=O)C1(NC(=O)OCc2ccccc2)CCCCC1 [Reference Example 145, N-[[1-[[(Phenylmethoxy)carbonyl]amino]cyclohexyl]carbonyl]-L-norleucinal] (Cbz-[Ac6c]-[Nle]-aldehyde)
B/K (ratio of IC50 cathepsin B to cathepsin K) [1]: 35
L/K (ratio of IC50 cathepsin L to cathepsin K) [2]: 50

CC(C)C[C@H](NC(=O)c1ccco1)C(=O)N[C@H](C=O)C(C)C [Reference Example 151, N—[N-(2-Furanylcarbonyl)-L-leucyl]-L-valinal]
B/K (ratio of IC50 cathepsin B to cathepsin K) [1]: 30
L/K (ratio of IC50 cathepsin L to cathepsin K) [2]: 35

CC(C)C[C@H](NC(=O)OCc1ccccc1)C(=O)N[C@H](C=O)C(C)C [Reference Example 148, N—[N-[(Phenylmethoxy)carbonyl]-L-leucyl]-L-valinal] (Cbz-Leu-Val-aldehyde)
B/K (ratio of IC50 cathepsin B to cathepsin K) [1]: 58
L/K (ratio of IC50 cathepsin L to cathepsin K) [2]: 74

CCCC[C@@H](C=O)NC(=O)[C@H](CC(C)C)NC(=O)OCc1ccccc1 [Reference Example 149, N—[N-[(Phenylmethoxy)carbonyl]-L-leucyl]-L-norleucinal]
B/K (ratio of IC50 cathepsin B to cathepsin K) [1]: 11
L/K (ratio of IC50 cathepsin L to cathepsin K) [2]: 15

CC(C)[C@@H](C=O)NC(=O)C1(NC(=O)OCc2ccccc2)CCCCC1 [Reference Example 144, N-[[1-[[(Phenylmethoxy)carbonyl]amino]cyclohexyl]carbonyl]-L-valinal] (Cbz-[Ac6c]-Val-aldehyde)
B/K (ratio of IC50 cathepsin B to cathepsin K) [1]: 230
L/K (ratio of IC50 cathepsin L to cathepsin K) [2]: 400
